From patent US7411090B2, “Process for the recovery of citric acid” (A.E. Staley Manufacturing Company, priority 2003, dated 2008)

Assay: Extraction into non-amine (NA) solvent from solutions containing both glucose and citric acid
Format: physicochemical
Conditions: selectivity decreases with increase in distribution of citric into solvent phase
Description: The citric/glucose selectivity decreases with the increase in the distribution of citric into the solvent phase.

- citric/glucose selectivity of extraction into the NA solvent: selectively extracted
Compound: O=C(O)CC(O)(CC(=O)O)C(=O)O [citric acid]
